Experimental data published in the supplement of paper PMC10307832.

What was measured:
Test in all cases: relative viability (nuclei count vs DMSO), 5 days (fraction); higher = more cells survive
[1] = compound: COc1cc2nc(N3CCCN(C)CC3)nc(NC3CCN(Cc4ccccc4)CC3)c2cc1OC + COc1cc2c(Oc3ccc(NC(=O)C4(C(=O)Nc5ccc(F)cc5)CC4)cc3F)ccnc2cc1OCCCN1CCOCC1 [Foretinib] (partner 0.25 µM)
In short: (§1)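 Lung cancer cell lines in 1536-well plates were dosed by pin tool the day after seeding, either with one drug alone or with a fixed anchor-drug dose plus five library-drug doses (not always all listed) in √10 steps. After 5 days, cells were fixed and their nuclei stained in one step (final 0.05% Triton X-100, 1% formaldehyde, 1 ug/ml Hoechst), then counted on 4× images. Relative viability is the nuclei count in treated wells divided by that in vehicle wells. Values are medians of duplicate plates.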

AZD6482 + OSI-027 = compound: Cc1cc([C@@H](C)Nc2ccccc2C(=O)O)c2nc(N3CCOCC3)cc(=O)n2c1 [AZD6482] + COc1cccc2cc(-c3nc([C@H]4CC[C@H](C(=O)O)CC4)n4ncnc(N)c34)[nH]c12 [OSI-027] (partner 0.5 µM)
In short: as §1

AZD6482 + Lapatinib = compound: Cc1cc([C@@H](C)Nc2ccccc2C(=O)O)c2nc(N3CCOCC3)cc(=O)n2c1 [AZD6482] + CS(=O)(=O)CCNCc1ccc(-c2ccc3ncnc(Nc4ccc(OCc5cccc(F)c5)c(Cl)c4)c3c2)o1 [Lapatinib] (partner 2 µM)
In short: as §1

AZD6482 + Pemetrexed = compound: Cc1cc([C@@H](C)Nc2ccccc2C(=O)O)c2nc(N3CCOCC3)cc(=O)n2c1 [AZD6482] + Nc1nc2[nH]cc(CCc3ccc(C(=O)N[C@@H](CCC(=O)O)C(=O)O)cc3)c2c(=O)[nH]1 [Pemetrexed] (partner 0.2 µM)
In short: as §1

## PC-14
[1]; first compound 0.2 µM
  relative viability: 1.01
[1]; first compound 0.6325 µM
  relative viability: 0.959
[1]; first compound 2 µM
  relative viability: 0.939
[1]; first compound 6.325 µM
  relative viability: 0.885
AZD6482 + OSI-027; first compound 0.08 µM
  relative viability: 0.723
AZD6482 + OSI-027; first compound 0.253 µM
  relative viability: 1.04
AZD6482 + OSI-027; first compound 0.8 µM
  relative viability: 0.841
AZD6482 + OSI-027; first compound 2.53 µM
  relative viability: 0.658
AZD6482 + OSI-027; first compound 8 µM
  relative viability: 0.954
AZD6482 + Lapatinib; first compound 0.08 µM
  relative viability: 0.257
AZD6482 + Lapatinib; first compound 0.253 µM
  relative viability: 0.234
AZD6482 + Lapatinib; first compound 0.8 µM
  relative viability: 0.255
AZD6482 + Lapatinib; first compound 2.53 µM
  relative viability: 0.196
AZD6482 + Lapatinib; first compound 8 µM
  relative viability: 0.219
AZD6482 + Pemetrexed; first compound 0.08 µM
  relative viability: 0.133
AZD6482 + Pemetrexed; first compound 0.253 µM
  relative viability: 0.125
AZD6482 + Pemetrexed; first compound 0.8 µM
  relative viability: 0.115
AZD6482 + Pemetrexed; first compound 2.53 µM
  relative viability: 0.15
AZD6482 + Pemetrexed; first compound 8 µM
  relative viability: 0.135

## RERF-LC-KJ
[1]; first compound 0.2 µM
  relative viability: 0.905
[1]; first compound 0.6325 µM
  relative viability: 0.927
[1]; first compound 2 µM
  relative viability: 0.904
[1]; first compound 6.325 µM
  relative viability: 0.857
AZD6482 + OSI-027; first compound 0.08 µM
  relative viability: 0.547
AZD6482 + OSI-027; first compound 0.253 µM
  relative viability: 0.496
AZD6482 + OSI-027; first compound 0.8 µM
  relative viability: 0.458
AZD6482 + OSI-027; first compound 2.53 µM
  relative viability: 0.497
AZD6482 + OSI-027; first compound 8 µM
  relative viability: 0.399
AZD6482 + Lapatinib; first compound 0.08 µM
  relative viability: 0.752
AZD6482 + Lapatinib; first compound 0.253 µM
  relative viability: 0.836
AZD6482 + Lapatinib; first compound 0.8 µM
  relative viability: 0.705
AZD6482 + Lapatinib; first compound 2.53 µM
  relative viability: 0.791
AZD6482 + Lapatinib; first compound 8 µM
  relative viability: 0.67
AZD6482 + Pemetrexed; first compound 0.08 µM
  relative viability: 0.461
AZD6482 + Pemetrexed; first compound 0.253 µM
  relative viability: 0.459
AZD6482 + Pemetrexed; first compound 0.8 µM
  relative viability: 0.465
AZD6482 + Pemetrexed; first compound 2.53 µM
  relative viability: 0.439
AZD6482 + Pemetrexed; first compound 8 µM
  relative viability: 0.449

## SK-LU-1
[1]; first compound 0.2 µM
  relative viability: 0.839
[1]; first compound 0.6325 µM
  relative viability: 0.79
[1]; first compound 2 µM
  relative viability: 0.783
[1]; first compound 6.325 µM
  relative viability: 0.653
AZD6482 + OSI-027; first compound 0.253 µM
  relative viability: 0.319
AZD6482 + OSI-027; first compound 0.8 µM
  relative viability: 0.347
AZD6482 + OSI-027; first compound 2.53 µM
  relative viability: 0.246
AZD6482 + OSI-027; first compound 8 µM
  relative viability: 0.214
AZD6482 + Lapatinib; first compound 0.253 µM
  relative viability: 0.76
AZD6482 + Lapatinib; first compound 0.8 µM
  relative viability: 0.849
AZD6482 + Lapatinib; first compound 2.53 µM
  relative viability: 0.687
AZD6482 + Lapatinib; first compound 8 µM
  relative viability: 0.513
AZD6482 + Pemetrexed; first compound 0.253 µM
  relative viability: 0.906
AZD6482 + Pemetrexed; first compound 0.8 µM
  relative viability: 1.04
AZD6482 + Pemetrexed; first compound 2.53 µM
  relative viability: 0.738
AZD6482 + Pemetrexed; first compound 8 µM
  relative viability: 0.714

## SK-MES-1
[1]; first compound 0.2 µM
  relative viability: 0.842
[1]; first compound 0.6325 µM
  relative viability: 0.926
[1]; first compound 2 µM
  relative viability: 0.97
[1]; first compound 6.325 µM
  relative viability: 0.865
AZD6482 + OSI-027; first compound 0.08 µM
  relative viability: 0.502
AZD6482 + OSI-027; first compound 0.253 µM
  relative viability: 0.554
AZD6482 + OSI-027; first compound 0.8 µM
  relative viability: 0.417
AZD6482 + OSI-027; first compound 2.53 µM
  relative viability: 0.302
AZD6482 + OSI-027; first compound 8 µM
  relative viability: 0.293
AZD6482 + Lapatinib; first compound 0.08 µM
  relative viability: 0.363
AZD6482 + Lapatinib; first compound 0.253 µM
  relative viability: 0.366
AZD6482 + Lapatinib; first compound 0.8 µM
  relative viability: 0.367
AZD6482 + Lapatinib; first compound 2.53 µM
  relative viability: 0.301
AZD6482 + Lapatinib; first compound 8 µM
  relative viability: 0.319
AZD6482 + Pemetrexed; first compound 0.08 µM
  relative viability: 0.84
AZD6482 + Pemetrexed; first compound 0.253 µM
  relative viability: 0.974
AZD6482 + Pemetrexed; first compound 0.8 µM
  relative viability: 0.876
AZD6482 + Pemetrexed; first compound 2.53 µM
  relative viability: 0.394
AZD6482 + Pemetrexed; first compound 8 µM
  relative viability: 0.532

## SW 1573
[1]; first compound 0.2 µM
  relative viability: 0.844
[1]; first compound 0.6325 µM
  relative viability: 0.974
[1]; first compound 2 µM
  relative viability: 0.941
[1]; first compound 6.325 µM
  relative viability: 0.862
AZD6482 + OSI-027; first compound 0.08 µM
  relative viability: 0.662
AZD6482 + OSI-027; first compound 0.253 µM
  relative viability: 0.52
AZD6482 + OSI-027; first compound 0.8 µM
  relative viability: 0.558
AZD6482 + OSI-027; first compound 2.53 µM
  relative viability: 0.341
AZD6482 + OSI-027; first compound 8 µM
  relative viability: 0.347
AZD6482 + Lapatinib; first compound 0.08 µM
  relative viability: 1.15
AZD6482 + Lapatinib; first compound 0.253 µM
  relative viability: 1.13
AZD6482 + Lapatinib; first compound 0.8 µM
  relative viability: 1.02
AZD6482 + Lapatinib; first compound 2.53 µM
  relative viability: 0.771
AZD6482 + Lapatinib; first compound 8 µM
  relative viability: 0.759
AZD6482 + Pemetrexed; first compound 0.08 µM
  relative viability: 0.881
AZD6482 + Pemetrexed; first compound 0.253 µM
  relative viability: 0.822
AZD6482 + Pemetrexed; first compound 0.8 µM
  relative viability: 0.827
AZD6482 + Pemetrexed; first compound 2.53 µM
  relative viability: 0.723
AZD6482 + Pemetrexed; first compound 8 µM
  relative viability: 0.75
